This is an account of results in paper PMC10020352 (Frontiers in Pharmacology, 2023).

For one series, the target named is T1, DOP receptor (Homo sapiens, UniProt P41143).
T1 construct: expressed in transfected cells; host or cells: HEK293
Put plainly: cell-based.

The next series deals with KOP receptor (Homo sapiens, UniProt P41145). Briefly: cell-based. The class given is cell-based.
For series [1], the target named is T2, bovine pancreatic trypsin (Bos taurus, UniProt P00760).
T2 sequence (P00760 24-246): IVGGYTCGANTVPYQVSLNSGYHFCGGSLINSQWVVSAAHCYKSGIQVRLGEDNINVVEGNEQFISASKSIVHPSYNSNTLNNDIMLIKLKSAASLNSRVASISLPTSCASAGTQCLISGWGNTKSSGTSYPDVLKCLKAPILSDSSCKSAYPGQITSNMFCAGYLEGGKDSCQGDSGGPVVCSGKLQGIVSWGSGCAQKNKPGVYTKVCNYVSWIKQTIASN
Briefly: Metabolic stability in trypsin. The conditions noted are these: bovine pancreatic trypsin 2.5 μg/mL, pH 8-8.5, 37°C, peptide 100 μM; read-out: Stability (t1/2) Trypsin. It is filed as in vitro ADME. The method, then:
(§1) Whole blood was collected in-house from adult mixed-gender Wistar rats (RRID: RGD_150520162), and plasma was prepared in 0.2% EDTA as per standard practice. Peptides (final 100 μM) were incubated with pooled rat plasma at 37°C. Samples were collected at different time intervals 0, 5, 10, 15, 30, 60, and 120 min. At each time point, collected samples were immediately added to three volumes of cold ACN. This mixture was vortexed for 30 s and then centrifuged at room temperature (13 K rpm, 5 min). The supernatant was taken and directly placed in glass HPLC vials for LCMS analysis. The protocol for the trypsin stability assay was as for the plasma stability assay except for the […] (bovine pancreatic trypsin 2.5 μg/mL in NH4HCO3 buffer, approx. pH 8–8.5, 37°C).
(§2) Relative concentrations of each peptide from stability assays in plasma or trypsin were analysed using an Agilent binary LC system consisting of an Agilent 1290 Infinity LC pump, Agilent 1,290 auto-sampler coupled with Triple Quad Mass-Spectrometer (MS, model 6460, Agilent Technologies). A bidentate C18 HPLC column (Cogent, 100 Å, […]) with a binary solvent gradient composed of Solvent: A 0.1%v/v formic acid in MQ water and Solvent B: 0.1% v/v formic acid in ACN was used for the separation. The MS parameters were optimised for all compounds to obtain the highest signal in positive Total Ion Current (TIC) mode. Data were analysed using a combination of Microsoft Excel and GraphPad Prism software packages. Data was normalised to time point zero (immediately after compound addition) and expressed in percentages from t = 0. Half-lives were calculated in GraphPad Prism software (v8.3).

The target in a further series is T3, MOP receptor (Homo sapiens, UniProt P35372).
T3 construct: expressed in transfected cells; host or cells: HEK293
T3 sequence (P35372 whole entry): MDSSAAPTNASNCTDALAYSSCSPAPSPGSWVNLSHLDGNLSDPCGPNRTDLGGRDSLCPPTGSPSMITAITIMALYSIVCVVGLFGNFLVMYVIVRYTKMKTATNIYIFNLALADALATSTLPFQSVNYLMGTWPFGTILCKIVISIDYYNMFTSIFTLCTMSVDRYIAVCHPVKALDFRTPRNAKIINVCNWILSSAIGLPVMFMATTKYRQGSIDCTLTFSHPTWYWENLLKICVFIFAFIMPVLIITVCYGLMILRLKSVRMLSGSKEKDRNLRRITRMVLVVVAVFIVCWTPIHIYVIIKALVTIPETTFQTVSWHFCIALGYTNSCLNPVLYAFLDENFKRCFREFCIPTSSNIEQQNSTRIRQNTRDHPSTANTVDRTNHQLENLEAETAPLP
Put plainly: cell-based.

A short description of series [2]: Metabolic stability in rat plasma. It is filed as in vitro ADME. The conditions noted are these: pooled rat plasma, 37°C, peptide 100 μM; for half-life: rat, plasma, read-out: Stability (t1/2) Plasma. The method, then:
as §1, §2

Where a SMILES comes first, the peptide text is derived from it. [ ]: non-standard residue; d: D form. Phe(4-NO2) = N[C@@H](Cc1ccc([N+](=O)[O-])cc1)C(=O)O; Phe(4-Cl) = N[C@@H](Cc1ccc(Cl)cc1)C(=O)O; Phe(4-F) = N[C@@H](Cc1ccc(F)cc1)C(=O)O; NMeR = CN[C@@H](CCCNC(=N)N)C(=O)O; Aoc = NCCCCCCCC(=O)O; Ahx = NCCCCCC(=O)O; Sar = CNCC(=O)O

T1 sequence (P41143 whole entry): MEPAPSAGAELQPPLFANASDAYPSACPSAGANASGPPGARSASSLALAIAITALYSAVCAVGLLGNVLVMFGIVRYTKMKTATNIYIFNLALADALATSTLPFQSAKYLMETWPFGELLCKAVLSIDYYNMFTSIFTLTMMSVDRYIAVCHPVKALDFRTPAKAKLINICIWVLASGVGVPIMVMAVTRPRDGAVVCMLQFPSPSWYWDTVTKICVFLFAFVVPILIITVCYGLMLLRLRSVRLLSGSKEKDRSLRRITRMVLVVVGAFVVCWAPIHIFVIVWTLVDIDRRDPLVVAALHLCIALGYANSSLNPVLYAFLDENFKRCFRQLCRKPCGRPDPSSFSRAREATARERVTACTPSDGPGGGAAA
KOP receptor, sequence (P41145 whole entry): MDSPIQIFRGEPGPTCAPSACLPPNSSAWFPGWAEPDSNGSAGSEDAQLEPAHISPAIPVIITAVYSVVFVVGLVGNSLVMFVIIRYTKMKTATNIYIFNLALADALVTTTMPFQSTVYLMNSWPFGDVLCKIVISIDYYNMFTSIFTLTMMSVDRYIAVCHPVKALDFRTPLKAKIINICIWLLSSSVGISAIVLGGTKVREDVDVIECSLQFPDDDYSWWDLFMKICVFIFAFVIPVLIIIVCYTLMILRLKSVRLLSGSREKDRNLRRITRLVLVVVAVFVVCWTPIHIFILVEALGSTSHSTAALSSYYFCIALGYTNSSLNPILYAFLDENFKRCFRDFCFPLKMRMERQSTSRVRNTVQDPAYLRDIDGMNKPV

Consider `CC(C)C[C@H](NC(=O)[C@H](Cc1ccc(Cl)cc1)NC(=O)CN(C)C(=O)[C@@H](N)Cc1ccc(O)cc1)C(=O)N[C@@H](CCCNC(=N)N)C(=O)N(C)[C@@H](CCCNC(=N)N)C(=O)NCCCCCCCC(N)=O` [KA312] (H-Y[Sar][Phe(4-Cl)]LR[NMeR][Aoc]-NH2), for which the EC50 – broadly, the concentration needed to bring the measured effect to its halfway point – is > 10000 nM on DOP receptor, 3.79 nM at KOP receptor and > 10000 nM on MOP receptor. Further, the half-life amounted to 445 min in series [1] and 15.6 min in series [2].

Regarding `CC(C)C[C@H](NC(=O)[C@H](Cc1ccc([N+](=O)[O-])cc1)NC(=O)CN(C)C(=O)[C@@H](N)Cc1ccc(O)cc1)C(=O)N[C@@H](CCCNC(=N)N)C(=O)N(C)[C@@H](CCCNC(=N)N)C(N)=O` [KA310] (H-Y[Sar][Phe(4-NO2)]LR[NMeR]-NH2), the EC50 was > 10000 nM at DOP receptor, 1.77 nM at KOP receptor and > 10000 nM at MOP receptor. For the same compound, the “selectivity for KOP receptor over MOP receptor and DOP receptor” value on KOP receptor is > 1000 fold. The half-life in series [1] is > 1000 min.

As for `C[C@@H](O)[C@H](NC(=O)[C@H](Cc1ccc(Cl)cc1)NC(=O)CN(C)C(=O)[C@@H](N)Cc1ccc(O)cc1)C(=O)N[C@@H](CCCNC(=N)N)C(=O)N[C@H](CCCNC(=N)N)C(N)=O` [KA308] (H-Y[Sar][Phe(4-Cl)]TR[dR]-NH2), the EC50 on DOP receptor is > 10000 nM; at KOP receptor it was 230 nM; on MOP receptor it was 5820 nM. In addition, the “Selectivity (fold) KOP/DOP” value at MOP receptor is recorded as 25 fold.

Turning to `CC(C)C[C@H](NC(=O)[C@H](Cc1ccc([N+](=O)[O-])cc1)NC(=O)CNC(=O)CNC(=O)[C@@H](N)Cc1ccc(O)cc1)C(=O)N[C@@H](CCCNC(=N)N)C(=O)N[C@H](CCCNC(=N)N)C(N)=O` [KA201], the EC50 at DOP receptor turned out to be 2180 nM; on KOP receptor, 1090 nM; on MOP receptor it was 1720 nM. Besides, the “Selectivity (fold) KOP/DOP” value on DOP receptor and on MOP receptor was 2 fold throughout. The half-life in series [1] was found to be 6.4 min.

Turning to `CC(C)C[C@@H](NC(=O)[C@@H](Cc1ccccc1)NC(=O)[C@H](N)Cc1ccccc1)C(=O)N[C@H](CCCCN)C(=O)N1CCC(N)(C(=O)O)CC1` [CR845, reference compound], the half-life in series [1] is > 1000 min.

Consider `CC(C)C[C@H](NC(=O)[C@H](Cc1ccc([N+](=O)[O-])cc1)NC(=O)CN(C)C(=O)[C@@H](N)Cc1ccc(O)cc1)C(=O)N[C@@H](CCCNC(=N)N)C(=O)N[C@H](CCCNC(=N)N)C(=O)NCCCCCCCC(N)=O` [KA314] (H-Y[Sar][Phe(4-NO2)]LR[dR][Aoc]-NH2), for which the results for the EC50 at DOP receptor, on KOP receptor and on MOP receptor were > 10000 nM, 2.49 nM and > 10000 nM, respectively. Moreover, the half-life in series [1] stood at 16.1 min; in series [2], 18.6 min.

Consider `CC(C)C[C@H](NC(=O)[C@H](Cc1ccc([N+](=O)[O-])cc1)NC(=O)CN(C)C(=O)[C@@H](N)Cc1ccc(O)cc1)C(=O)N[C@@H](CCCNC(=N)N)C(=O)N(C)[C@@H](CCCNC(=N)N)C(=O)NCCCCCCCC(N)=O` [KA313] (H-Y[Sar][Phe(4-NO2)]LR[NMeR][Aoc]-NH2), for which the figures for the EC50 on DOP receptor, on KOP receptor and at MOP receptor were > 10000 nM, 4.45 nM and > 10000 nM, respectively. The half-life in series [1] was > 1000 min; in series [2], 12.5 min.

In the case of `CC(C)C[C@H](NC(=O)[C@H](Cc1ccccc1)NC(=O)CN(C)C(=O)[C@@H](N)Cc1ccc(O)cc1)C(=O)N[C@@H](CCCNC(=N)N)C(=O)N[C@H](CCCNC(=N)N)C(N)=O` [KA203] (H-Y[Sar]FLR[dR]-NH2), the EC50 on DOP receptor was > 10000 nM; at KOP receptor it was 74.7 nM; at MOP receptor, > 10000 nM. Besides, the half-life in series [1] was 13.6 min; in series [2], 72 min.

In the case of `CC(C)C[C@H](NC(=O)[C@H](Cc1ccc(Cl)cc1)NC(=O)CN(C)C(=O)[C@@H](N)Cc1ccc(O)cc1)C(=O)N(C)[C@@H](CCCNC(=N)N)C(=O)N[C@H](CCCNC(=N)N)C(N)=O` [KA301] (H-Y[Sar][Phe(4-Cl)]L[NMeR][dR]-NH2), the half-life in series [2] turned out to be 2240 min.

Turning to `CC(C)C[C@H](NC(=O)[C@H](Cc1ccc(Cl)cc1)NC(=O)CN(C)C(=O)[C@@H](N)Cc1ccc(O)cc1)C(=O)N[C@@H](CCCCN)C(=O)N[C@H](CCCNC(=N)N)C(N)=O` [KA306] (H-Y[Sar][Phe(4-Cl)]LK[dR]-NH2), the EC50 on DOP receptor is > 10000 nM; on KOP receptor, 26 nM; at MOP receptor, > 10000 nM. The half-life in series [1] is 69.9 min; in series [2] it was 160 min.

`CC(C)C[C@H](NC(=O)[C@H](Cc1ccc(F)cc1)NC(=O)CN(C)C(=O)[C@@H](N)Cc1ccc(O)cc1)C(=O)N(C)[C@@H](CCCNC(=N)N)C(=O)N[C@H](CCCNC(=N)N)C(N)=O` [KA302] (H-Y[Sar][Phe(4-F)]L[NMeR][dR]-NH2): the EC50 on DOP receptor was determined as 1660 nM; at KOP receptor it was 11.6 nM; on MOP receptor, 4000 nM. In addition, the “Selectivity (fold) KOP/DOP” value worked out at 143 fold on DOP receptor and 344 fold on MOP receptor. Besides, the half-life in series [1] is > 1000 min. The “Stability (t1/2) Plasma” value in series [2] amounted to 323.9 min.

With `CC(C)C[C@H](NC(=O)[C@H](Cc1ccc(Cl)cc1)NC(=O)CN(C)C(=O)[C@@H](N)Cc1ccc(O)cc1)C(=O)N[C@@H](CCCNC(=N)N)C(=O)N[C@H](CCCNC(=N)N)C(=O)NCCCCCC(N)=O` [KA304] (H-Y[Sar][Phe(4-Cl)]LR[dR][Ahx]-NH2), the EC50 on DOP receptor was found to be 1600 nM; at KOP receptor, 3.64 nM; on MOP receptor, 363 nM. Moreover, the “Selectivity (fold) KOP/DOP” value at DOP receptor worked out at 440 fold; on MOP receptor, 100 fold. Further, the half-life in series [1] was found to be 8.33 min; in series [2], 79 min.

For `CC(C)C[C@H](NC(=O)[C@H](Cc1ccc(Cl)cc1)NC(=O)CN(C)C(=O)[C@@H](N)Cc1ccc(O)cc1)C(=O)N[C@@H](CCCNC(=N)N)C(=O)N[C@H](CCCNC(=N)N)C(N)=O` [KA206] (H-Y[Sar][Phe(4-Cl)]LR[dR]-NH2), the EC50 on DOP receptor is > 10000 nM; at KOP receptor it was 6.1 nM; on MOP receptor it was > 10000 nM. For the same compound, the half-life in series [1] stood at 15.9 min; in series [2], 31.9 min.

As for `CC(C)C[C@H](NC(=O)[C@H](Cc1ccc([N+](=O)[O-])cc1)NC(=O)CNC(=O)CN(C)C(=O)[C@@H](N)Cc1ccc(O)cc1)C(=O)N[C@@H](CCCNC(=N)N)C(=O)N[C@H](CCCNC(=N)N)C(N)=O` [KA202], the EC50 is > 10000 nM on DOP receptor, 930 nM at KOP receptor and > 10000 nM on MOP receptor. The half-life in series [1] is 8.5 min.

On to `CC(C)C[C@H](NC(=O)[C@H](Cc1ccc([N+](=O)[O-])cc1)NC(=O)CN(C)C(=O)[C@@H](N)Cc1ccc(O)cc1)C(=O)N(C)[C@@H](CCCNC(=N)N)C(=O)N[C@H](CCCNC(=N)N)C(N)=O` [KA303] (H-Y[Sar][Phe(4-NO2)]L[NMeR][dR]-NH2), for which the results for the EC50 at DOP receptor, at KOP receptor and at MOP receptor were 1320 nM, 13.5 nM and > 10000 nM, respectively. Besides, on DOP receptor, the “Selectivity (fold) KOP/DOP” value was 98 fold. Also, the half-life is 12.1 min in series [1] and 168 min in series [2].

`CC(C)C[C@H](NC(=O)[C@H](Cc1ccc([N+](=O)[O-])cc1)NC(=O)CN(C)C(=O)[C@@H](N)Cc1ccc(O)cc1)C(=O)N[C@H](CCCNC(=N)N)C(=O)N[C@@H](CCCNC(=N)N)C(N)=O` [KA205] (H-Y[Sar][Phe(4-NO2)]L[dR]R-NH2): the values for the EC50 at DOP receptor, at KOP receptor and at MOP receptor were 3920 nM, 1800 nM and > 10000 nM, respectively. Also, the “Selectivity (fold) KOP/DOP” value on DOP receptor turned out to be 2 fold. In addition, the half-life in series [1] amounted to 3260 min; in series [2], 28.7 min.

With `CC(C)C[C@H](NC(=O)[C@H](Cc1ccc(F)cc1)NC(=O)CN(C)C(=O)[C@@H](N)Cc1ccc(O)cc1)C(=O)N[C@@H](CCCNC(=N)N)C(=O)N[C@H](CCCNC(=N)N)C(N)=O` [KA207] (H-Y[Sar][Phe(4-F)]LR[dR]-NH2), the results for the EC50 at DOP receptor, on KOP receptor and at MOP receptor were > 10000 nM, 6.7 nM and 3450 nM, respectively. Besides, the half-life in series [1] was 7.6 min; in series [2], 38.2 min. Further, the “Selectivity (fold) KOP/DOP” value at MOP receptor came out at 515 fold.

Regarding `CC(C)C[C@H](NC(=O)[C@H](Cc1ccc(Cl)cc1)NC(=O)[C@H](C)NC(=O)[C@@H](N)Cc1ccc(O)cc1)C(=O)N[C@@H](CCCNC(=N)N)C(=O)N[C@H](CCCNC(=N)N)C(N)=O` [KA307] (H-YA[Phe(4-Cl)]LR[dR]-NH2), the figures for the EC50 at DOP receptor, on KOP receptor and at MOP receptor were > 10000 nM, 1040 nM and 1870 nM, respectively. On MOP receptor, the “Selectivity (fold) KOP/DOP” value was determined as 2 fold.
